Target: T1, human plasma renin (Homo sapiens, UniProt P00797)
T1 construct: from tissue; host or cells: human plasma
T1 sequence (P00797 67-406): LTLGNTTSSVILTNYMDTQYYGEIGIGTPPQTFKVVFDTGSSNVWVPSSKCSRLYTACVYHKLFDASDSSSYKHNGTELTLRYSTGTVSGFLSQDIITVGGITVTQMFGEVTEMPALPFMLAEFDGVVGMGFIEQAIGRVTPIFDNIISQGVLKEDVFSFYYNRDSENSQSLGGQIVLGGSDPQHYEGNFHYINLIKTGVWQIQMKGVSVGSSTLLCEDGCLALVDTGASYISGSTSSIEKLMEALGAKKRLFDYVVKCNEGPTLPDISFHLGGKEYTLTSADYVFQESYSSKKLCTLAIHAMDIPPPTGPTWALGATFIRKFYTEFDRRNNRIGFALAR
Experiment: Inhibition of human plasma renin, in vitro method of Boger et al., J. Med. Chem. (1985) 28, 1779
Type: biochemical
Protocol: Inhibition of human plasma renin was assayed using the in vitro method described by Boger, et. al., J. Med. Chem. (1985) 28, 1779.

**Q.** Which IC50 does the source give for `CN1CCC[C@@H]([C@H](O)[C@H](CC2CCCCC2)NC(=O)[C@H](Cc2c[nH]cn2)NC(=O)[C@H](Cc2ccccc2)NC(=O)OC(C)(C)C)C1=O` [Example 3A, Boc-Phe-His-(ACHP)-1-Methyl-2-Piperidinone] here?
**A.** 47 nM

**Q.** `CN1CCCC[C@@H]([C@H](O)[C@H](CC2CCCCC2)NC(=O)[C@H](Cc2c[nH]cn2)NC(=O)[C@H](Cc2ccccc2)NC(=O)OC(C)(C)C)C1=O` [Example 3C, Boc-Phe-His-(ACHP)-1-Methylcaprolactam] was tested. Which IC50 did it give?
**A.** 203 nM

**Q.** How did the IC50 turn out when “Boc-Phe-His-(ACHP)-4-Methyl-3-Morpholinone [Example 3B]” was run?
**A.** 31 nM
